Read-outs that look alike come from different tables or passages of the source.
Biological target: T1, Androgen Receptor (Homo sapiens, UniProt P10275)
T1 construct: endogenous in cells; host or cells: VCaP cells
T1 sequence (P10275 1-920): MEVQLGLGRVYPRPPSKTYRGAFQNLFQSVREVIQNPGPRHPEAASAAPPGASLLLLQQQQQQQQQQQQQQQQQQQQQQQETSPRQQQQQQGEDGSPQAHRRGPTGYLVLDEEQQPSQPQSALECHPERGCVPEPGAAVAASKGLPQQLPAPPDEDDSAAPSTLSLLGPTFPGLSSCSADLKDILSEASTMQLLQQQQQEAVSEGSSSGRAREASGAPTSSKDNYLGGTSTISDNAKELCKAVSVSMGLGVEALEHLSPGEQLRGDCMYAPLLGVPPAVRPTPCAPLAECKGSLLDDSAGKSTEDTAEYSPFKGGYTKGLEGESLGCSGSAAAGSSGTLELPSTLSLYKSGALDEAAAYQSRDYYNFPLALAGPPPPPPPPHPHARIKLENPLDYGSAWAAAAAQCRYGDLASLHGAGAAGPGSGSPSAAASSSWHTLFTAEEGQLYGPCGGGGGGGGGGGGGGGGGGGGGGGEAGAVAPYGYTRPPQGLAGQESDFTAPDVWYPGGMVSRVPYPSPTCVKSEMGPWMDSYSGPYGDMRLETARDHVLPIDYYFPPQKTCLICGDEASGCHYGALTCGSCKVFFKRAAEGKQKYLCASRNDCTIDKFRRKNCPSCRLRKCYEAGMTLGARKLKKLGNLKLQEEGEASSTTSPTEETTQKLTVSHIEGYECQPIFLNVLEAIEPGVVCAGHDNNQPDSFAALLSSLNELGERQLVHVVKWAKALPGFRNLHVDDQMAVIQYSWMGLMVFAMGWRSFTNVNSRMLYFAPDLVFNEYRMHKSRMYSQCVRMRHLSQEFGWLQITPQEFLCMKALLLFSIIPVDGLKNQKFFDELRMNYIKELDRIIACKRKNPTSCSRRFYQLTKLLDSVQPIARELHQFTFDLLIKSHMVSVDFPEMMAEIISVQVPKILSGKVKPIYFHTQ
Assay: Androgen Receptor ELISA assay (PathScan AR ELISA) in VCaP cells: AR degradation, Dmax and DC50
Assay type: cell-based
Outline: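 After 24 h exposure of VCaP cells (charcoal-stripped serum, 0.1 nM R1881 agonist, 0.1% DMSO) to seven half-log compound concentrations, residual AR in lysates was measured by PathScan ELISA (TMB absorbance, 450 nm). Cells were plated at 30,000/well and grown at least 3 days beforehand.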

[1] = VCaP cells; Table 36; read-out: VCaP DC50
[2] = VCaP, VCaP cells; Table 36; read-out: VCaP Dmax (%)
[3] = VCaP, read-out: VCaP Dmax (%), VCaP cells; Table 36
[4] = VCaP, highest percentage of Androgen Receptor degradation observed, VCaP cells (Table 32); read-out: VCaP Dmax (%)
[5] = concentration that caused 50% Androgen Receptor degradation, VCaP cells (Table 32); read-out: VCaP DC50

Structure (SMILES)	DC50 [1] [nM]	Dmax [2] [%]	other results
CC(C)[C@H](OCCN1CCN(c2ccc(C(=O)N[C@H]3C(C)(C)[C@H](Oc4ccc(C#N)c(Cl)c4)C3(C)C)cn2)CC1)C(=O)N[C@H](C(=O)N1C[C@H](O)C[C@H]1C(=O)NCc1ccc(Cl)cc1)C(C)(C)C [Example 742, N-((1r,3r)-3-(3-chloro-4-cyanophenoxy)-2,2,4,4-tetramethylcyclobutyl)-6-(4-(2-(((S)-1-(((S)-1-((2S,4R)-2-((4-chlorobenzyl)carbamoyl)-4-hydroxypyrrolidin-1-yl)-3,3-dimethyl-1-oxoutan-2-yl)amino)-3-methyl-1-oxobutan-2-yl)oxy)ethyl)piperazin-1-yl)nicotinamide]	> 501	< 25	
Cc1ncsc1-c1ccc(CNC(=O)[C@@H]2C[C@@H](O)CN2C(=O)[C@@H](NC(=O)COCCC(O)COc2ccc(-c3ccc(N4C(=S)N(c5ccc(C#N)c(C(F)(F)F)c5)C(=O)C4(C)C)cc3)cc2)C(C)(C)C)cc1 (stereo partly drawn) [Example 129, (2S,4R)-1-[(2S)-2-(2-{4-[4-(4-{3-[4-cyano-3-(trifluoromethyl)phenyl]-5,5-dimethyl-4-oxo-2-sulfanylideneimidazolidin-1-yl}phenyl)phenoxy]-3-hydroxybutoxy}acetamido)-3,3-dimethylbutanoyl]-4-hydroxy-N-{[4-(4-methyl-1,3-thiazol-5-yl)phenyl]methyl}pyrrolidine-2-carboxamide]			Dmax (VCaP, read-out: VCaP Dmax (%)): 51 to 70%; DC50 (read-out: VCaP DC50; concentration that caused 50% Androgen Receptor degradation, VCaP cells (Table 32)): < 50 nM
CC(=O)N[C@H](C(=O)N1C[C@H](O)C[C@H]1C(=O)N[C@@H](C)c1ccc(-c2scnc2C)cc1)[C@@H](C)OCCCN(C)CCc1ccc(C(=O)N[C@H]2C(C)(C)[C@H](Oc3ccc(C#N)c(Cl)c3)C2(C)C)cc1 [Example 734, (2S,4R)-1-(N-acetyl-O-(3-((4-(((1r,3r)-3-(3-chloro-4-cyanophenoxy)-2,2,4,4-tetramethylcyclobutyl)carbamoyl)phenethyl)(meth-yl)amino)propyl)-L-threonyl)-4-hydroxy-N-((S)-1-(4-(4-methylthiazol-5-yl)phenyl)ethyl)pyrrolidine-2-carboxamide]	> 501	< 25	
Cc1ncsc1-c1ccc([C@H](C)NC(=O)C2C[C@@H](O)CN2C(=O)C(NC(=O)CN2CC3(CC(N4CCN(c5ccc(C(=O)NC6C(C)(C)C(Oc7ccc(C#N)c(Cl)c7)C6(C)C)cn5)CC4)C3)C2)C(C)(C)C)cc1 (stereo partly drawn) [Example 814, N-((1r,3r)-3-(3-chloro-4-cyanophenoxy)-2,2,4,4-tetramethylcyclobutyl)-6-(4-(2-(2-(((S)-1-((2S, 4R)-4-hydroxy-2-(((S)-1-(4-(4-methylthiazol-5-yl)phenyl)ethyl)carbamoyl)pyrrolidin-1-yl)-3,3-dimethyl-1-oxobutan-2-yl)amino)-2-oxoethyl)-2-azaspiro [3.3]heptan-6-yl)piperazin-1-yl) nicotinamide]	< 50	26 to 50	
Cc1ncsc1-c1ccc(C(C)NC(=O)C2CC(O)CN2C(=O)C(NC(=O)CN2CCOCCOCCN(c3ccc(C(=O)NC4C(C)(C)C(Oc5ccc(C#N)c(Cl)c5)C4(C)C)cc3)CCOCCOCC2)C(C)(C)C)cc1 [Example 694, (2S,4R)-1-((S)-2-(2-(16-(4-(((1r,3r)-3-(3-chloro-4-cyanophenoxy)-2,2,4,4-tetramethylcyclobutyl)carbamoyl)phenyl)-1,4,10,13-tetraoxa-7,16-diazacyclooctadecan-7-yl)acetamido)-3,3-dimethylbutanoyl)-4-hydroxy-N-((S)-1-(4-(4-methylthiazol-5-yl)phenyl)ethyl)pyrrolidine-2-carboxamide]	< 50		Dmax [3]: 51 to 70%
Cc1ncsc1-c1ccc(CNC(=O)[C@@H]2C[C@@H](O)CN2C(=O)[C@@H](NC(=O)CO[C@H](C)CCCCOc2ccc(C(=O)N[C@H]3C(C)(C)[C@H](Oc4ccc(C#N)c(Cl)c4)C3(C)C)cc2)C(C)(C)C)cc1 [Example 158, (2S,4R)-1-[(2S)-3,3-dimethyl-2-(2-{[(2R)-6-(4-{[trans-3-(3-chloro-4-cyanophenoxy)-2,2,4,4-tetramethylcyclobutyl]carbamoyl}phen-oxy)hexan-2-yl]oxy}acetamido)butanoyl]-4-hydroxy-N-{[4-(4-methyl-1,3-thiazol-5-yl)phenyl]methyl}pyrrolidine-2-carboxamide]			Dmax [4]: > 71%; DC50 [5]: < 50 nM
Cc1ncsc1-c1ccc(CNC(=O)[C@@H]2C[C@@H](O)CN2C(=O)[C@@H](NC(=O)COCCCCCNc2ccc(C(=O)N[C@H]3C(C)(C)[C@H](Oc4ccc(C#N)c(Cl)c4)C3(C)C)cc2)C(C)(C)C)cn1 [Example 516]			DC50 (VCaP cells; Table 35; read-out: VCaP DC50): < 50 nM; Dmax (VCaP, VCaP cells; Table 35; read-out: VCaP Dmax (%)): > 71%
CC(C)[C@H](NC(=O)COCCCOCCCCOc1ccc(N2C(=S)N(c3ccc(C#N)c(Cl)c3)C(=O)C2(C)C)cc1)C(=O)N1C[C@H](O)C[C@H]1C(=O)NCc1ccc(-c2cncs2)cc1 [Example 36]			Dmax (VCaP, read-out: VCaP Dmax (%)): 26 to 50%; DC50 (read-out: VCaP DC50; concentration that caused 50% Androgen Receptor degradation, VCaP cells): < 50 nM
CC(C)C[C@@H](C(=O)N[C@@H](C)C(=O)N1C[C@H](O)C[C@H]1C(=O)N[C@@H](C)c1ccc(Cl)cc1)N1CCN(CCCc2ccc(C(=O)N[C@H]3C(C)(C)[C@H](Oc4ccc(C#N)c(Cl)c4)C3(C)C)cc2)CC1 [Example 738, (2S,4R)-1-(((S)-2-(4-(3-(4-(((1r,3r)-3-(3-chloro-4-cyanophenoxy)-2,2,4,4-tetramethylcyclobutyl)carbamoyl)phenyl)propyl)piperazin-1-yl)-4-methylpentanoyl)-L-alanyl)-N-((S)-1-(4-chlorophenyl)ethyl)-4-hydroxypyrrolidine-2-carboxamide]	> 501	< 25	
Cc1ncsc1-c1ccc([C@H](C)NC(=O)[C@@H]2C[C@@H](O)CN2C(=O)[C@@H](NC(=O)CN2CCN(CC3(Cc4ccc(C(=O)N[C@H]5C(C)(C)[C@H](Oc6ccc(C#N)c(C(F)(F)F)c6)C5(C)C)cc4)COC3)CC2)C(C)(C)C)cc1 [Example 741, (2S,4R)-1-((S)-2-(2-(4-((3-(4-(((1r,3r)-3-(4-cyano-3-(trifluoromethyl)phenoxy)-2,2,4,4-tetramethylcyclobutyl)carbamoyl)benzyl)oxetan-3-yl)methyl)piperazin-1-yl)acetamido)-3,3-dimethylbutanoyl)-4-hydroxy-N-((S)-1-(4-(4-methylthiazol-5-yl)phenyl)ethyl)pyrrolidine-2-carboxamide]	< 50		Dmax (VCaP, read-out: VCaP Dmax (%)): 51 to 70%
Cc1ncsc1-c1ccc([C@H](C)NC(=O)[C@@H]2C[C@@H](O)CN2C(=O)[C@@H](NC(=O)CN2CCC(O[C@H]3C[C@H](Nc4ccc(C(=O)N[C@H]5C(C)(C)[C@H](Oc6ccc(C#N)c(Cl)c6)C5(C)C)cc4F)C3)CC2)C(C)(C)C)cc1 [Example 706, (2S,4R)-1-((S)-2-(2-(4-((1R,3S)-3-((4-(((1r,3R)-3-(3-chloro-4-cyanophenoxy)-2,2,4,4-tetramethylcyclobutyl)carbamoyl)-2-fluorophenyl)amino)cyclobutoxy)piperidin-1-yl)acetamido)-3,3-dimethylbutanoyl)-4-hydroxy-N-((S)-1-(4-(4-methylthiazol-5-yl)phenyl)ethyl)pyrrolidine-2-carboxamide]	< 50		Dmax [3]: > 71%
CC(C)[C@H](OCCN1CCN(c2ccc(C(=O)N[C@H]3C(C)(C)[C@H](Oc4ccc(C#N)c(Cl)c4)C3(C)C)cn2)CC1)C(=O)N[C@@H](C)C(=O)N1C[C@H](O)C[C@H]1C(=O)NCc1ccc(Cl)cc1 [Example 731, N-((1r,3r)-3-(3-chloro-4-cyanophenoxy)-2,2,4,4-tetramethylcyclobutyl)-6-(4-(2-(((S)-1-(((S)-1-((2S,4R)-2-((4-chlorobenzyl)carbamoyl)-4-hydroxypyrrolidin-1-yl)-1-oxopropan-2-yl)amino)-3-methyl-1-oxobutan-2-yl)oxy)ethyl)piperazin-1-yl)nicotinamide]	> 501	< 25	
Cc1ncsc1-c1ccc([C@@H](C)NC(=O)[C@@H]2C[C@@H](O)CN2C(=O)[C@@H](NC(=O)COCCCCOc2ccc(C(=O)N[C@H]3C(C)(C)[C@H](Oc4ccc(C#N)c(Cl)c4)C3(C)C)cc2)C(C)(C)C)cc1 [Example 171, (2S,4R)-1-[(2S)-3,3-dimethyl-2-{2-[4-(4-{[trans-3-(3-chloro-4-cyanophenoxy)-2,2,4,4-tetramethylcyclobutyl]carbamoyl}phenoxy)butoxy]acetamido}butanoyl]-4-hydroxy-N-[(1R)-1-[4-(4-methyl-1,3-thiazol-5-yl)phenyl]ethyl]pyrrolidine-2-carboxamide]			Dmax [4]: 26 to 50%; DC50 [5]: < 50 nM

From US11427548B2 (Arvinas Operations, Inc., priority 2015, dated 2022)
